System: guinea pigs exposed to smoke of cigarette
Test: Cigarette smoke exposure guinea pig COPD model, respiratory functions by Double-chamber Plethymograph method
Format: in vivo, Hartley strain guinea pigs
Conditions: 10 mg/kg orally once a day; for Changes in Peak expiration flow / Changes in Specific airway resistance value: change vs value before exposure to cigarette smoke
Protocol: In accordance with the method of Jun-ichi Fuchikami, et al. (Japanese Journal of Pharmacology, 2000, (82), p. 247), the following pharmacological test was conducted.
Hartley strain guinea pigs (5 weeks age, body weight: 300 to 379.5 g) were exposed to smoke of cigarette (trade name: Hi-Light, manufactured by Japan Tobacco Inc.) for 1 hour/day, 5 days a week, during 4 weeks, by using a flow-past type nose-only inhalation chamber, manufactured by Muenster Co. Control group as a normal group was exposed to the atmospheric air instead of cigarette smoke.
Compound A was suspended in 0.5% tragacanth gum aqueous solution, and this suspension was orally administered compulsorily to the guinea pigs (compound A administered group), in the amount of 10 mg/kg once a day, 1 hour before the exposure to cigarette smoke in the day of exposure, and in the morning in the day of non-exposure, respectively.
To the guinea pigs in the vehicle administered group, a 0.5% tragacanth gum aqueous solution without containing Compound A was orally administered instead of the suspension of compound A.
While, to the guinea pigs in the control group, neither the 0.5% tragacanth aqueous solution nor the compound A suspension were administered.
Before exposure and during the period of 4 weeks of exposure to the smoke of cigarette, the respiratory functions (specific airway resistance and peak expiration flow) of the guinea pigs were non-invasively assessed once a week under conscious condition, using Double-chamber Plethymograph method with a respiratory function measuring equipment (Pulmos-I, manufactured by M.I.P.S. Co.).
The respiratory functions (i.e., values of specific airway resistance and peak expiration flow) were obtained as an average of 100 times measured values of the functions, and were shown as the changes of percentage to the respective value of respiratory function measured before exposure to cigarette smoke.

## CCOc1ccc(-c2nc(-c3cccc(C(=O)O)n3)cs2)cc1OCC [Compound A, 6-[2-(3,4-diethoxyphenyl)thiazol-4-yl]pyridine-2-carboxylic acid]
4 weeks cigarette smoke exposure
  Effect on specific airway resistance and peak expiration flow as compared with vehicle administered group: excellent improving effects
1 Week after exposure
  Changes in Peak expiration flow: 9.67%
  Changes in Specific airway resistance value: 12.75%
2 Week after exposure
  Changes in Peak expiration flow: 15.67%
  Changes in Specific airway resistance value: 41.82%
3 Week after exposure
  Changes in Peak expiration flow: 14.08%
  Changes in Specific airway resistance value: 61.08%
4 Week after exposure
  Changes in Peak expiration flow: 37.06%
  Changes in Specific airway resistance value: 51.26%

Source: patent publication US7932276B2, “Agent for curing chronic obstructive pulmonary disease” (Otsuka Pharmaceutical Co., Ltd., priority 2001, dated 2011)
